SMILES strings stand for the structures.

For experiment [1], the target named is T1, ULK3 (Homo sapiens, UniProt Q6PHR2).
T1 construct: purchased Eurofins DiscoverX KINOMEscan
The experiment is described as follows: DiscoverX KINOMEscan binding assay at 1 μM, ULK3. Conditions: Compound Concentration 1000 nM, read-out: Percent Control. From the text:
(§1) Supplement cells-12-00287-s001.zip/File S2. KinomeScan data for the CAMKK2 probe and negative control.xlsx, sheet "SGC-CAMKK2-1" | column: Percent Control

The target in experiment [2] is T2, ERK5 (Homo sapiens, UniProt Q13164).
T2 construct: purchased Eurofins DiscoverX KINOMEscan
The experiment is described as follows: KINOMEscan 1 μM, ERK5. The format is binding. Conditions: 1000 nM; Entrez MAPK7; read-out: Percent Control.
From the text: as §1

The target in experiment [3] is T3, DAPK3 (Homo sapiens, UniProt O43293).
T3 construct: purchased Eurofins DiscoverX KINOMEscan
As to the kind of experiment: KINOMEscan 1 μM, DAPK3. It is filed as binding. Conditions: 1000 nM; Entrez DAPK3; read-out: Percent Control.
From the text: as §1

The target of experiment [4] is T4, CDKL1 (Homo sapiens, UniProt Q00532).
T4 construct: purchased Eurofins DiscoverX KINOMEscan
As to the kind of experiment: KINOMEscan 1 μM, CDKL1. The format is binding. Conditions: 1000 nM; Entrez CDKL1; read-out: Percent Control.
From the text: as §1

Experiment [5] concerns the target T5, NDR1 (Homo sapiens, UniProt Q15208).
T5 construct: purchased Eurofins DiscoverX KINOMEscan
As to the kind of experiment: KINOMEscan 1 μM, NDR1. It is filed as binding. Conditions: 1000 nM; Entrez STK38; read-out: Percent Control.
From the text: as §1

Experiment [6] concerns the target T6, FLT3(D835V) (Homo sapiens, UniProt P36888, D835V).
T6 construct: purchased Eurofins DiscoverX KINOMEscan
The experiment is described as follows: KINOMEscan 1 μM, FLT3(D835V). The format is binding. Conditions: 1000 nM; Entrez FLT3; read-out: Percent Control.
From the text: as §1

The target of experiment [7] is T7, BMPR1B (Homo sapiens, UniProt O00238).
T7 construct: purchased Eurofins DiscoverX KINOMEscan
As to the kind of experiment: KINOMEscan 1 μM, BMPR1B. The format is binding. Conditions: 1000 nM; Entrez BMPR1B; read-out: Percent Control.
From the text: as §1

The target in experiment [8] is T8, FER (Homo sapiens, UniProt P16591).
T8 construct: purchased Eurofins DiscoverX KINOMEscan
The experiment is described as follows: KINOMEscan 1 μM, FER. The format is binding. Conditions: 1000 nM; Entrez FER; read-out: Percent Control.
From the text: as §1

Experiment [9] deals with T9, IRAK1 (Homo sapiens, UniProt P51617).
T9 construct: purchased Eurofins DiscoverX KINOMEscan
The experiment is described as follows: KINOMEscan 1 μM, IRAK1. It is filed as binding. Conditions: 1000 nM; Entrez IRAK1; read-out: Percent Control.
From the text: as §1

Experiment [10] deals with T10, LATS1 (Homo sapiens, UniProt O95835).
T10 construct: purchased Eurofins DiscoverX KINOMEscan
As to the kind of experiment: KINOMEscan 1 μM, LATS1. It is filed as binding. Conditions: 1000 nM; Entrez LATS1; read-out: Percent Control.
From the text: as §1

Experiment [11] has as its target T11, FGFR2 (Homo sapiens, UniProt P21802).
T11 construct: purchased Eurofins DiscoverX KINOMEscan
As to the kind of experiment: KINOMEscan 1 μM, FGFR2. Conditions: 1000 nM; Entrez FGFR2; read-out: Percent Control. The format is binding.
From the text: as §1

Experiment [12] addresses T12, CSNK1A1 (Homo sapiens, UniProt P48729).
T12 construct: purchased Eurofins DiscoverX KINOMEscan
The experiment is described as follows: KINOMEscan 1 μM, CSNK1A1. The format is binding. Conditions: 1000 nM; Entrez CSNK1A1; read-out: Percent Control.
From the text: as §1

Experiment [13] concerns the target T13, MEK5 (Homo sapiens, UniProt Q13163).
T13 construct: purchased Eurofins DiscoverX KINOMEscan
As to the kind of experiment: KINOMEscan 1 μM, MEK5. Conditions: 1000 nM; Entrez MAP2K5; read-out: Percent Control. It is filed as binding.
From the text: as §1

The target in experiment [14] is T14, JAK3(JH1domain-catalytic) (Homo sapiens, UniProt P52333).
T14 construct: JAK3(JH1domain-catalytic); purchased Eurofins DiscoverX KINOMEscan
The experiment is described as follows: KINOMEscan 1 μM, JAK3(JH1domain-catalytic). The format is binding. Conditions: 1000 nM; Entrez JAK3; read-out: Percent Control.
From the text: as §1

The target in experiment [15] is T15, EPHA8 (Homo sapiens, UniProt P29322).
T15 construct: purchased Eurofins DiscoverX KINOMEscan
The experiment is described as follows: KINOMEscan 1 μM, EPHA8. Conditions: 1000 nM; Entrez EPHA8; read-out: Percent Control. The format is binding.
From the text: as §1

For experiment [16], the target named is T16, RET(M918T) (Homo sapiens, UniProt P07949, M918T).
T16 construct: purchased Eurofins DiscoverX KINOMEscan
The experiment is described as follows: DiscoverX KINOMEscan binding assay at 1 μM, RET(M918T). Conditions: Compound Concentration 1000 nM, read-out: Percent Control.
From the text: as §1

The target of experiment [17] is T17, OSR1 (Homo sapiens, UniProt O95747).
T17 construct: purchased Eurofins DiscoverX KINOMEscan
The experiment is described as follows: KINOMEscan 1 μM, OSR1. The format is binding. Conditions: 1000 nM; Entrez OXSR1; read-out: Percent Control.
From the text: as §1

For experiment [18], the target named is T18, CAMK1 (Homo sapiens, UniProt Q14012).
T18 construct: purchased Eurofins DiscoverX KINOMEscan
The experiment is described as follows: KINOMEscan 1 μM, CAMK1. The format is binding. Conditions: 1000 nM; Entrez CAMK1; read-out: Percent Control.
From the text: as §1

Experiment [19] deals with T19, TEC (Homo sapiens, UniProt P42680).
T19 construct: purchased Eurofins DiscoverX KINOMEscan
As to the kind of experiment: KINOMEscan at 1 μM, TEC. Conditions: 1000 nM, read-out: Percent Control. The format is binding. From the text:
(§2) Supplement cells-12-00287-s001.zip/File S2. KinomeScan data for the CAMKK2 probe and negative control.xlsx, sheet "SGC-CAMKK2-1N" | column: Percent Control

In experiment [20] the target is T20, AURKB (Homo sapiens, UniProt Q96GD4).
T20 construct: purchased Eurofins DiscoverX KINOMEscan
The experiment is described as follows: KINOMEscan at 1 μM, AURKB. It is filed as binding. Conditions: 1000 nM, read-out: Percent Control.
From the text: as §2

Experiment [21] addresses T21, MAPKAPK5 (Homo sapiens, UniProt Q8IW41).
T21 construct: purchased Eurofins DiscoverX KINOMEscan
As to the kind of experiment: KINOMEscan binding assay at 1 μM, MAPKAPK5. Conditions: Compound Concentration 1000 nM; read-out: Percent Control.
From the text: as §2

For experiment [22], the target named is T22, NEK10 (Homo sapiens, UniProt Q6ZWH5).
T22 construct: purchased Eurofins DiscoverX KINOMEscan
As to the kind of experiment: KINOMEscan at 1 μM, NEK10. It is filed as binding. Conditions: 1000 nM, read-out: Percent Control.
From the text: as §2

In experiment [23] the target is T23, FGFR4 (Homo sapiens, UniProt P22455).
T23 construct: purchased Eurofins DiscoverX KINOMEscan
As to the kind of experiment: KINOMEscan binding assay at 1 μM, FGFR4. Conditions: Compound Concentration 1000 nM; read-out: Percent Control.
From the text: as §2

The target in experiment [24] is T24, LOK (Homo sapiens, UniProt O94804).
T24 construct: purchased Eurofins DiscoverX KINOMEscan
As to the kind of experiment: KINOMEscan binding assay at 1 μM, LOK. Conditions: Compound Concentration 1000 nM; read-out: Percent Control.
From the text: as §2

The target of experiment [25] is T25, NEK3 (Homo sapiens, UniProt P51956).
T25 construct: purchased Eurofins DiscoverX KINOMEscan
The experiment is described as follows: KINOMEscan at 1 μM, NEK3. The format is binding. Conditions: 1000 nM, read-out: Percent Control.
From the text: as §2

In experiment [26] the target is T26, EPHB2 (Homo sapiens, UniProt P29323).
T26 construct: purchased Eurofins DiscoverX KINOMEscan
As to the kind of experiment: KINOMEscan binding assay at 1 μM, EPHB2. Conditions: Compound Concentration 1000 nM; read-out: Percent Control.
From the text: as §2

Experiment [27] concerns the target T27, AKT3 (Homo sapiens, UniProt Q9Y243).
T27 construct: purchased Eurofins DiscoverX KINOMEscan
As to the kind of experiment: KINOMEscan at 1 μM, AKT3. The format is binding. Conditions: 1000 nM, read-out: Percent Control.
From the text: as §2

The target in experiment [28] is T28, ROCK1 (Homo sapiens, UniProt Q13464).
T28 construct: purchased Eurofins DiscoverX KINOMEscan
As to the kind of experiment: KINOMEscan at 1 μM, ROCK1. It is filed as binding. Conditions: 1000 nM, read-out: Percent Control.
From the text: as §2

Experiment [29] has as its target T29, EGFR(T790M) (Homo sapiens, UniProt P00533, T790M).
T29 construct: purchased Eurofins DiscoverX KINOMEscan
The experiment is described as follows: KINOMEscan at 1 μM, EGFR(T790M). It is filed as binding. Conditions: 1000 nM, read-out: Percent Control.
From the text: as §2

For experiment [30], the target named is T30, PIK3C2B (Homo sapiens, UniProt O00750).
T30 construct: purchased Eurofins DiscoverX KINOMEscan
As to the kind of experiment: KINOMEscan at 1 μM, PIK3C2B. The format is binding. Conditions: 1000 nM, read-out: Percent Control.
From the text: as §2

In experiment [31] the target is T31, NEK5 (Homo sapiens, UniProt Q6P3R8).
T31 construct: purchased Eurofins DiscoverX KINOMEscan
The experiment is described as follows: KINOMEscan at 1 μM, NEK5. The format is binding. Conditions: 1000 nM, read-out: Percent Control.
From the text: as §2

Experiment [32] deals with T8, FER. The experiment is described as follows: KINOMEscan binding assay at 1 μM, FER. Conditions: Compound Concentration 1000 nM; read-out: Percent Control.
From the text: as §2

The target in experiment [33] is T9, IRAK1. The experiment is described as follows: KINOMEscan at 1 μM, IRAK1. The format is binding. Conditions: 1000 nM, read-out: Percent Control.
From the text: as §2

T8 sequence (P16591 whole entry): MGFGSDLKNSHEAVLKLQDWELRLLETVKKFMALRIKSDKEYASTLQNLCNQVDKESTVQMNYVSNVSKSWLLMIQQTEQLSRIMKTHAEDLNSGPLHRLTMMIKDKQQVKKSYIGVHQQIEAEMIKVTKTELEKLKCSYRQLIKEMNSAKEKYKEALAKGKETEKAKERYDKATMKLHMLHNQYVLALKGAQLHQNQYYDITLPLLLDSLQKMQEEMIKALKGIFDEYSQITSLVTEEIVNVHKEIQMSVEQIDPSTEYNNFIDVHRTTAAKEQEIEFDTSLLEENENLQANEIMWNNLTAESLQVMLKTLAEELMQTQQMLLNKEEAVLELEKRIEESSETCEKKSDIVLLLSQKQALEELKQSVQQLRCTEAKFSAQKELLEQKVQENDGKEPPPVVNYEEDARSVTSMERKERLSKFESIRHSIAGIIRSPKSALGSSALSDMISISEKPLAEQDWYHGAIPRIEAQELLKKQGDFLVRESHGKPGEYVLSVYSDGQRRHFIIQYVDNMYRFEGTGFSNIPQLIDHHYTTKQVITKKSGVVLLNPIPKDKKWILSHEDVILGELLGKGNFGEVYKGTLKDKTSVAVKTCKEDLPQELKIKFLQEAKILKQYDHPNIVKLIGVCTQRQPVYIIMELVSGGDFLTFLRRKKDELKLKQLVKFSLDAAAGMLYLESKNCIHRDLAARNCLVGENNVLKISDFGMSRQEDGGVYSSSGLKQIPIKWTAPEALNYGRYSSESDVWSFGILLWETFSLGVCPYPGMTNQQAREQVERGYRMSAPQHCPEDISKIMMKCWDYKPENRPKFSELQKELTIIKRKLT
T9 sequence (P51617 whole entry): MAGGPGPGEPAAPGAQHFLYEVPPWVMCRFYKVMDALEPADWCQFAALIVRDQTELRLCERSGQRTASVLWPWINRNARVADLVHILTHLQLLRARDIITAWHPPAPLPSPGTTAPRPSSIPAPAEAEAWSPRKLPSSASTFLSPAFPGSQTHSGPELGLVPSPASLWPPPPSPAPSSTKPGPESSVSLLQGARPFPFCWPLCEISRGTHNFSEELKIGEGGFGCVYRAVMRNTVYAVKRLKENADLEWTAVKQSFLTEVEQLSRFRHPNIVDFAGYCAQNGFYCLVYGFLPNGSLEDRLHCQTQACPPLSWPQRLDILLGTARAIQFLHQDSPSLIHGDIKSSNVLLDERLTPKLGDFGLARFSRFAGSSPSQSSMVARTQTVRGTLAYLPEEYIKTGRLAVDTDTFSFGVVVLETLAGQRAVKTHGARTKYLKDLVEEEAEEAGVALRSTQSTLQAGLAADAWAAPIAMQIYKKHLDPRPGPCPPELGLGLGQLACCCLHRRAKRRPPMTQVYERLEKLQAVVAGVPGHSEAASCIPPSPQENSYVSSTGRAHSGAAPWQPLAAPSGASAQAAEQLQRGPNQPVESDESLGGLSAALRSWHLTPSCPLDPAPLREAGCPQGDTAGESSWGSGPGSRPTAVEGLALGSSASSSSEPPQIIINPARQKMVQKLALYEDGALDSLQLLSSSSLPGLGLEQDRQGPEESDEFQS
T18 sequence (Q14012 whole entry): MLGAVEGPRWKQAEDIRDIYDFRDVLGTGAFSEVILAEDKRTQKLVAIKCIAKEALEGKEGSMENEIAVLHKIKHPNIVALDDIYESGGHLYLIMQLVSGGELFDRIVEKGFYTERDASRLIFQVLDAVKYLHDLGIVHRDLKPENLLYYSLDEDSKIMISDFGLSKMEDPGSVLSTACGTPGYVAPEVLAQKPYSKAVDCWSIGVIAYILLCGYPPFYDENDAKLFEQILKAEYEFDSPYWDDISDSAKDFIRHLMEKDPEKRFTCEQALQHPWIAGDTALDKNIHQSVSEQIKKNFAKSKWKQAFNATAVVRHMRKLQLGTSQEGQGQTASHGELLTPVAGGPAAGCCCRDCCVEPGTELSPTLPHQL
T30 sequence (O00750 whole entry): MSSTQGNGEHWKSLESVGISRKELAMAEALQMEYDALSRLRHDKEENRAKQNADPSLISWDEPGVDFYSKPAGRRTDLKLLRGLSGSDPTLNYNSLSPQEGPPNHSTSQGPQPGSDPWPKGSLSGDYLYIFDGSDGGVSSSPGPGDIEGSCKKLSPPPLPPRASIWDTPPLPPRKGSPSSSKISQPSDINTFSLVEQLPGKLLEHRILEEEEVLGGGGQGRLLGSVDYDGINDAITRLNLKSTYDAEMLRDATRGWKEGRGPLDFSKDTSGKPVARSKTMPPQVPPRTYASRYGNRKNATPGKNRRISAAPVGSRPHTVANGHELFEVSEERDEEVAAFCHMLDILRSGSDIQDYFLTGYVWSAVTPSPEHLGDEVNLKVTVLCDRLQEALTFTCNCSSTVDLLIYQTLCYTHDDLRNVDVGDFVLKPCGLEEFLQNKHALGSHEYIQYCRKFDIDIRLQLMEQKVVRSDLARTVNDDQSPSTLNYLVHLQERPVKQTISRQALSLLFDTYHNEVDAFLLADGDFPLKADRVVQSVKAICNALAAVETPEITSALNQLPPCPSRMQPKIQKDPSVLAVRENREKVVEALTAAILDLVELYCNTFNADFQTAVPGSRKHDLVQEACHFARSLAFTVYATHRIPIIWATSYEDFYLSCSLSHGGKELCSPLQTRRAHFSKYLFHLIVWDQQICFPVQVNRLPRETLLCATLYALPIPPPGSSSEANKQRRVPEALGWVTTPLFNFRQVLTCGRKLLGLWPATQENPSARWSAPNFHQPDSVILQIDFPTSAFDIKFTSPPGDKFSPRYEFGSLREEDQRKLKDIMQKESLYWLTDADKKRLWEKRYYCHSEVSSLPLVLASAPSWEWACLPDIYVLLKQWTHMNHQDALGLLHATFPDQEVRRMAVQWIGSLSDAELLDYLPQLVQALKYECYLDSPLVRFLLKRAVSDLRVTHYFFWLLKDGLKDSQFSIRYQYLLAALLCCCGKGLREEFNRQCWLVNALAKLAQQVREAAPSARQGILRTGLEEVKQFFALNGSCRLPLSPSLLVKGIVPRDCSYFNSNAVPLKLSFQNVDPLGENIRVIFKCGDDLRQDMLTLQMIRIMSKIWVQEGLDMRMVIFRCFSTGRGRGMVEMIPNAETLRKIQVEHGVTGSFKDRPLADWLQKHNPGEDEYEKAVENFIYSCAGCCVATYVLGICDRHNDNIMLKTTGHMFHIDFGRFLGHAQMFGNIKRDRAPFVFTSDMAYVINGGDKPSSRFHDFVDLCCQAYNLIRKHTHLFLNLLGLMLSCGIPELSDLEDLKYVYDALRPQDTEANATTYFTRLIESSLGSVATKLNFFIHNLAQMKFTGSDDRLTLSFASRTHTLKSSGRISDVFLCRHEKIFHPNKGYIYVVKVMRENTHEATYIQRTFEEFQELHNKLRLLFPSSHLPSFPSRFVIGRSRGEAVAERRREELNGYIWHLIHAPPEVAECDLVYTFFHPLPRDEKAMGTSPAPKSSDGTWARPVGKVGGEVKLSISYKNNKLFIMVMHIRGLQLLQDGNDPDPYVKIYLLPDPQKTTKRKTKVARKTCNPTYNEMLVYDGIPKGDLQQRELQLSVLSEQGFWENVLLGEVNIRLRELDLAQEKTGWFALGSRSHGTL
T29 sequence (P00533 25-1210 T790M): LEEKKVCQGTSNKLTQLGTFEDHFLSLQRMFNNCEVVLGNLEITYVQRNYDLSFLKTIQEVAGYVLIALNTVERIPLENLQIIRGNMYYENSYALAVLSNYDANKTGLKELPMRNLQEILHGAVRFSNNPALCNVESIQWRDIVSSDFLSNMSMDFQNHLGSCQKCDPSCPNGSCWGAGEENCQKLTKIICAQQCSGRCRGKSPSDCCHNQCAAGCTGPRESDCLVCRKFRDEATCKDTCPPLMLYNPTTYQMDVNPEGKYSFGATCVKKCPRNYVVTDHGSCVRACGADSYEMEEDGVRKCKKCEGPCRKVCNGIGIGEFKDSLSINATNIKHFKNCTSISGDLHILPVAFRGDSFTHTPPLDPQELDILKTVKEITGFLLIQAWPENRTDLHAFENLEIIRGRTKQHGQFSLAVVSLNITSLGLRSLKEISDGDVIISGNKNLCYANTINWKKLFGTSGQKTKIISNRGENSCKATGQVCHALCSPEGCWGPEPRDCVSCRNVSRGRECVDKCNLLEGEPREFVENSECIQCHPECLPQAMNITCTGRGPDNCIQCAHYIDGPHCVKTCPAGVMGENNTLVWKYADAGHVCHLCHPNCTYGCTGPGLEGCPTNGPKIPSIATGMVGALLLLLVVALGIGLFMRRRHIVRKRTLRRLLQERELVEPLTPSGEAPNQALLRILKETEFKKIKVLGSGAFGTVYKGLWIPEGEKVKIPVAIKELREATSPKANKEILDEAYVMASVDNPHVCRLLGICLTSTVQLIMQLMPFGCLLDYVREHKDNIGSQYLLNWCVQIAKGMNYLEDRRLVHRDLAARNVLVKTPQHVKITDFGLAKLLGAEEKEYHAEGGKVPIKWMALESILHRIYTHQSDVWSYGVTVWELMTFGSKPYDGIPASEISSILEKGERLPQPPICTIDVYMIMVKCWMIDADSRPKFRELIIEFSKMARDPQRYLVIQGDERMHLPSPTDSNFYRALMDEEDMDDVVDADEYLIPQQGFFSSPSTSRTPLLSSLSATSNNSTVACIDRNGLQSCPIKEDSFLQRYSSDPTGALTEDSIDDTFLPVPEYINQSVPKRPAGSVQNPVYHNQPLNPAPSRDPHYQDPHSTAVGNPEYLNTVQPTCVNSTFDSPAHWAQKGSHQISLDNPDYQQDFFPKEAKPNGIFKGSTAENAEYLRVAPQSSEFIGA
T12 sequence (P48729 whole entry): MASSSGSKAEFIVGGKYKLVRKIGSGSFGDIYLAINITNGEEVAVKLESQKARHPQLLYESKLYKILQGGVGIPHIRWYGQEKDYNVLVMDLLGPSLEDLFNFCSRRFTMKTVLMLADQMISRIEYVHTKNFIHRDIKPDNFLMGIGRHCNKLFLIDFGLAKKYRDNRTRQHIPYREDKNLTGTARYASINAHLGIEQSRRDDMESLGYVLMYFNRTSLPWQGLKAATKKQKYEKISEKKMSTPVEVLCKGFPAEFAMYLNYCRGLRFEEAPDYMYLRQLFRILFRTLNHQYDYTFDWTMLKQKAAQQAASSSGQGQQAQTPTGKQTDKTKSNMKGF

Turning to `Cc1cccc(-c2cnc3occ(-c4ccc(C(=O)O)c(C5CCCC5)c4)c3c2)c1` [SGC-CAMKK2-1 (YL-36)], the remaining binding at 1 µM in experiment [1], in experiment [2], in experiment [3], in experiment [4], in [5] and in [6] was 100% each time. The remaining binding at 1 µM was 100% in [7]; 77% in experiment [8]; 100% in experiment [9]; 100% in [10]; 88% in experiment [11]; 78% in experiment [12]. For the same compound, the remaining binding at 1 µM in [13] turned out to be 84%; in experiment [14], 100%; in [15] it was 95%; in [16] it was 100%; in experiment [17] it was 84%; in [18], 89%.

As for `O=C(O)c1ccc(-c2coc3ncc(-c4ccccc4)cc23)cc1Cl` [SGC-CAMKK2-1N (UNC-YL-83)], the remaining binding at 1 µM in experiment [19] came to 96%; in experiment [20], 62%; in experiment [21], 100%; in experiment [22], 82%; in [23], 100%; in experiment [24], 100%. The remaining binding at 1 µM is 71% in experiment [25]; 100% in experiment [26]; 95% in experiment [27]; 79% in [28]; 85% in [29]; 91% in experiment [30]. Further, the remaining binding at 1 µM amounted to 93% in experiment [31], 100% in experiment [32] and 68% in experiment [33].

These data come from paper PMC9856672, “SGC-CAMKK2-1: A Chemical Probe for CAMKK2” (Cells, 2023).
